Source: patent publication US10071095B2, “1,2,4-triazolo [4,3-A] pyridine derivatives and their use for the treatment of neurological and psychiatric disorders” (JANSSEN PHARMACEUTICALS, INC., priority 2009, dated 2018)

Key:
human mGluR2 receptor = target: T1, human mGluR2 receptor (Homo sapiens, UniProt Q14416); assay: [35S]GTPγS binding assay, positive allosteric modulation (GTPγS-PAM) in presence of EC20 glutamate; type: biochemical; settings: in presence of glutamate at EC20, average pEC50 if more experiments, ‡ means tested once; for EC50: read-out: GTPγS - hR2 PAM pEC50 (converted)
T1 construct: expressed in transfected cells; host or cells: CHO cells
T1 sequence (Q14416 19-872): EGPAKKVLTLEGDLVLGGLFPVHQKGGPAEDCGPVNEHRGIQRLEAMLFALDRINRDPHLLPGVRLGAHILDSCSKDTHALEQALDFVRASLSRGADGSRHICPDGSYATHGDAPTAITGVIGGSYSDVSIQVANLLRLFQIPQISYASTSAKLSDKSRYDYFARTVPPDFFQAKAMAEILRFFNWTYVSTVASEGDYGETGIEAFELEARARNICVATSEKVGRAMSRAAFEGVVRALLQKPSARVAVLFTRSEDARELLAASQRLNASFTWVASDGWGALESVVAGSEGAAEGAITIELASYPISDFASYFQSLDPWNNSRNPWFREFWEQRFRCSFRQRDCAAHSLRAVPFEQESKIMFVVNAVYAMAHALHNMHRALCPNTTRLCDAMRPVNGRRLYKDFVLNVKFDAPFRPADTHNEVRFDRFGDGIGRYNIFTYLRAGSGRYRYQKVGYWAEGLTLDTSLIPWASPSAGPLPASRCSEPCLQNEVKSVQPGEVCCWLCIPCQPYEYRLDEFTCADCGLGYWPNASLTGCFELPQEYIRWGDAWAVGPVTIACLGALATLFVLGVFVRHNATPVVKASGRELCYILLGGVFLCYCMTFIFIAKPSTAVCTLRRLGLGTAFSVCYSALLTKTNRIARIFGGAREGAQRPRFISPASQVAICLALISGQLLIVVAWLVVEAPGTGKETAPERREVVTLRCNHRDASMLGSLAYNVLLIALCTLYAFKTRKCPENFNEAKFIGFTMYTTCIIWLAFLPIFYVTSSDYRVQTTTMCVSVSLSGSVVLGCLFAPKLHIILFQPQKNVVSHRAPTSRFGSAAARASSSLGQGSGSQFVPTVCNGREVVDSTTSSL
In short: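 Membranes from butyrate-stimulated CHO cells expressing human mGluR2 (7 μg protein) preincubated 30 min at 30°C with compound plus ~EC20 glutamate in HEPES pH 7.4, 100 mM NaCl, 3 mM MgCl2, 10 μM GDP, 10 μg/ml saponin. [35S]GTPγS (0.1 nM) incorporation over 30 min at 30°C measured by filtration and scintillation counting.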

[1] = tested on: PCP-induced hyperlocomotion in male NMRI mice; assay: Phencyclidine (PCP)-induced hyperlocomotion in mice (video tracking); type: in vivo; settings: for Mice ED50 (mg/kg) PCP-Inh., estimated ED50 (footnote a) / Mice ED50 (mg/kg) PCP-Inh.: inhibition of PCP-induced hyperlocomotion; for Mice ED50 (mg/kg) PCP-Inh., estimated ED50 (footnote a): estimated ED50 values (n = 3 per dose; 4-fold separation between doses); for Mice ED50 (mg/kg) PCP-Inh.: dose at which 50% of the tested animals show the effect
Description: Motor Activity (Video Tracking)
Apparatus and General Procedure
On the day of experiments, the mice were brought into the procedural room. They were housed individually and allowed to acclimate for at least a half hour prior to testing. Although the studies were conducted during the light cycle (from 8:00 to 16:00 h), the procedure room was only sparsely lit (3 to 30 LUX) to provide better contrast for the video tracking. Local lighting was used for the injection procedures. During each trial, an individual mouse was placed in an open field arena (grey PVC cylinder with a height of 40 cm and a diameter of 22.5 cm). Each arena was placed on an infrared LED (8×8 LEDs)-lit box (white PVC squared box; 40×40 cm^2; height 12.5 cm). Each mouse was placed in the center of the arena and allowed to explore freely for 30 min. After each trial, the arena was cleaned with a wet and subsequently with a dry cleaning cloth. An infrared sensitive tube camera and a white light source (in arena: 4-7 LUX) were mounted to the ceiling above the observation chamber to record and input activity to a computer. Animal behavior was recorded and analyzed using the Noldus Ethovision XT Video Tracking System (Version 3.1; Noldus, Wageningen, The Netherlands). The total distance traveled (cm) was calculated. Data were then exported to data management systems for further analysis and reporting.
Phencyclidine (PCP)-Induced Hyperlocomotion in Mice
Test compound or solvent was administered at a pre-defined time before measurement (standard: 30 min) to male NMRI mice that were challenged with phencyclidine (PCP; 5 mg/kg, s.c.) 30 min before measurement. Activity was measured for a period of 30 min.

## Clc1c(CN2CCC(c3ccccc3)CC2)ccn2c(CC3CC3)nnc12 [compound 1, 8-Chloro-3-cyclopropylmethyl-7-[(4-phenyl-1-piperidinyl)methyl]-1,2,4-triazolo[4,3-a]pyridine]
Human mGluR2 receptor
  EC50: 209 nM
other
  melting point: 181.8 °C

## Clc1c(N2CCC3(CC2)OCc2ccccc23)ccn2c(CC3CC3)nnc12 [compound 6, 1′-[8-Chloro-3-(cyclopropylmethyl)-1,2,4-triazolo[4,3-a]pyridin-7-yl]-spiro[isobenzofuran-1(3H),4′piperidine]]
Human mGluR2 receptor
  EC50: 129 nM
other
  melting point: 194.5 °C

## FC(F)(F)Cc1nnc2c(Cl)c(N3CCC4(CC3)OCc3ccccc34)ccn12 [compound 8]
Human mGluR2 receptor
  EC50: 97.7 nM
other
  melting point: > 300 °C

## N#Cc1c(N2CCC(c3ccccc3)CC2)ccn2c(CN3CCOCC3)nnc12 [compound 11]
Human mGluR2 receptor
  EC50: 7590 nM
other
  melting point: 300 °C

## FC(F)(F)Cc1nnc2c(Cl)c(N3CCC4(CC3)COc3ccccc34)ccn12 [compound 16, 1′-[8-Chloro-3-(2,2,2-trifluoroethyl)[1,2,4]triazolo[4,3-a]pyridin-7-yl]-spiro[1-benzofuran-3,4′-piperidine]]
Human mGluR2 receptor
  EC50: 178 nM
other
  melting point: 269.1 °C

## CC(C)OCc1nnc2c(C(F)(F)F)c(N3CCC(F)(c4ccccc4)CC3)ccn12 [compound 18, 7-(4-Fluoro-4-phenylpiperidin-1-yl)-3-[(1-methylethoxy)methyl]-8-(trifluoromethyl)[1,2,4]triazolo[4,3-a]pyridine]
Human mGluR2 receptor
  EC50: 69.2 nM
other
  melting point: 153.7 °C

## Clc1c(N2CCC(c3ccccc3)CC2)ccn2c(CC3CC3)nnc12 [compound 26, 8-Chloro-3-cyclopropylmethyl-7-[4-phenyl-piperidin-1-yl]-[1,2,4]triazolo[4,3-a]pyridine]
Human mGluR2 receptor
  GTPγS - hR2 PAM pEC50: 6.99
other
  melting point: 194.1 °C

## FC(F)(F)Cc1nnc2c(Cl)c(CN3CCC(c4ccccc4)CC3)ccn12 [compound 30]
Human mGluR2 receptor
  GTPγS - hR2 PAM pEC50: 6.95
[1]
  inhibition of PCP-induced hyperlocomotion in mice (in words): inhibited
  Mice ED50 (mg/kg) PCP-Inh., estimated ED50 (footnote a): 5 ^a) mg/kg

## N#Cc1c(N2CCN(C3CCC(C(F)(F)F)CC3)CC2)ccn2c(CC3CC3)nnc12 (stereo not drawn) [compound 44]
Human mGluR2 receptor
  GTPγS - hR2 PAM pEC50: 6.02
[1]
  Mice ED50 (mg/kg) PCP-Inh.: >40 mg/kg

## CCc1nnc2c(C(F)(F)F)c(N3CCC(c4ccccc4)CC3)ccn12 [compound 66]
Human mGluR2 receptor
  GTPγS - hR2 PAM pEC50: 6.94
[1]
  inhibition of PCP-induced hyperlocomotion in mice (in words): inhibited
  Mice ED50 (mg/kg) PCP-Inh.: 17.4 ^ mg/kg

## FC(F)(F)c1c(N2CCC(c3ccccn3)CC2)ccn2c(CC3CC3)nnc12 [compound 78]
Human mGluR2 receptor
  GTPγS - hR2 PAM pEC50: 6.83
[1]
  Mice ED50 (mg/kg) PCP-Inh.: ≥10^ mg/kg

## CC1(C)CN(c2ccn3c(CC(F)(F)F)nnc3c2Cl)CCN1c1ccccc1 [compound 100, 8-Chloro-3-(2,2,2-trifluoroethyl)-7-(3,3-dimethyl-4-phenyl-piperazin-1-yl)-[1,2,4]triazolo[4,3-a]pyridine]
Human mGluR2 receptor
  EC50: 309 nM
other
  melting point: 260.2 °C

## FC(F)(F)c1c(N2CCN(c3ccccc3)C3(CC3)C2)ccn2c(CC3CC3)nnc12 [compound 121, 1′-[3-cyclopropylmethyl-8-(trifluoromethyl)[1,2,4]triazolo[4,3-a]pyridin-7-yl]-4-phenyl-4,7-diaza-spiro[2.5]octane]
Human mGluR2 receptor
  EC50: 234 nM
other
  melting point: 218.4 °C

## FC(F)(F)c1c(N2CCC(c3ccccc3)CC2)ccn2c(CCC3CC3)nnc12 [compound 123, 8-Trifluoromethyl-3-(2′-cyclopropyl)ethyl-7-(4-phenylpiperidin-1-yl)-[1,2,4]triazolo[4,3-a]pyridine]
Human mGluR2 receptor
  EC50: 40.7 nM
other
  melting point: 300 °C

## Cc1c(N2CCC(c3ccccc3)CC2)ccn2c(CC3CC3)nnc12 [compound 145, 3-Cyclopropylmethyl-8-methyl-7-(4-phenyl-piperidin-1-yl)-[1,2,4]triazolo[4,3-a]pyridine]
Human mGluR2 receptor
  EC50: 417 nM
other
  melting point: > 300 °C

## CC1(c2ccccn2)CCN(c2ccn3c(CC4CC4)nnc3c2C(F)(F)F)CC1 [compound 148, 8-Trifluoromethyl-3-(cyclopropylmethyl)-7-(4-methyl-4-(2-pyridinyl)-piperidin-1-yl)-1,2,4-triazolo[4,3-a]pyridine]
Human mGluR2 receptor
  EC50: 363 nM
other
  melting point: > 300 °C

## FC(F)(F)c1c(N2CCC(c3ccccc3)CC2)ccn2c(Cc3ccccn3)nnc12 [compound 153, 8-Trifluoromethyl-3-(2-pyridinylmethyl)-7-(4-phenylpiperidin-1-yl)-1,2,4-triazolo[4,3-a]pyridine]
Human mGluR2 receptor
  EC50: 195 nM
other
  melting point: > 300 °C

## Fc1ccc(CN2CCN(c3ccn4c(CC5CC5)nnc4c3C(F)(F)F)CC2)c(F)c1 [compound 227]
Human mGluR2 receptor
  GTPγS - hR2 PAM pEC50: 6.31‡

## FC(F)(F)c1c(N2CCC(NCc3ccccc3)CC2)ccn2c(CC3CC3)nnc12 [compound 230]
Human mGluR2 receptor
  GTPγS - hR2 PAM pEC50: 5.61‡

## Fc1ccc(CN2CCCC3(C2)CN(c2ccn4c(CC5CC5)nnc4c2C(F)(F)F)C3)c(F)c1 [compound 232]
Human mGluR2 receptor
  GTPγS - hR2 PAM pEC50: 7.64

## CC1(C)CN(c2ccn3c(CC4CC4)nnc3c2C(F)(F)F)CCN1c1cc(F)cc(F)c1 [compound 233]
Human mGluR2 receptor
  GTPγS - hR2 PAM pEC50: 7.23

## FC1(F)CCN(C2CCN(c3ccn4c(CC5CC5)nnc4c3C(F)(F)F)CC2)CC1 [compound 238]
Human mGluR2 receptor
  GTPγS - hR2 PAM pEC50: 6.08‡

## FC1(F)CCN(C2CCN(c3ccn4c(CC5CC5)nnc4c3Cl)CC2)CC1 [compound 242]
Human mGluR2 receptor
  GTPγS - hR2 PAM pEC50: 5.86

## FC(F)(F)c1c(CN2CCC(F)(c3ccccc3)CC2)ccn2c(CC3CC3)nnc12 [compound 250, 3-(Cyclopropylmethyl)-7-[(4-fluoro-4-phenyl-1-piperidinyl)methyl]-8-(trifluoromethyl)-1,2,4-triazolo[4,3-a]pyridine]
[1]; Mus musculus, read-out: Mice ED50 (mg/kg) PCP-Inh.
  ED50: > 10 mg/kg

## Clc1c(N2CCC(n3ccc4ccccc43)CC2)ccn2c(CC3CC3)nnc12 [compound 259]
Human mGluR2 receptor
  GTPγS - hR2 PAM pEC50: 6.67‡

## FC(F)(F)c1c(N2CCC3(C=Cc4ccccc43)CC2)ccn2c(CC3CC3)nnc12 [compound 260]
Human mGluR2 receptor
  GTPγS - hR2 PAM pEC50: 7.47

## FC(F)(F)c1c(N2C[C@@H]3[C@H](C2)[C@H]3c2ccccc2)ccn2c(CC3CC3)nnc12 [compound 266]
Human mGluR2 receptor
  GTPγS - hR2 PAM pEC50: 7.88‡

## Fc1ccccc1C1CCN(c2ccn3c(CC4CC4)nnc3c2C(F)(F)F)CC1 [compound 274]
Human mGluR2 receptor
  GTPγS - hR2 PAM pEC50: 7.83‡

## COc1cc(F)ccc1C1CCN(c2ccn3c(CC4CC4)nnc3c2C(F)(F)F)CC1 [compound 277]
Human mGluR2 receptor
  GTPγS - hR2 PAM pEC50: 7.72

## Fc1ccc(COC2CCN(c3ccn4c(CC5CC5)nnc4c3C(F)(F)F)CC2)c(F)c1 [compound 279]
Human mGluR2 receptor
  GTPγS - hR2 PAM pEC50: 7.24‡

## Fc1cc(CN2CCN(c3ccn4c(CC5CC5)nnc4c3Cl)CC2)cc(C(F)(F)F)c1 [compound 280]
Human mGluR2 receptor
  GTPγS - hR2 PAM pEC50: 5.95‡

## FC(F)(F)c1c(N2CCC(c3ccccc3Cl)CC2)ccn2c(CC3CC3)nnc12 [compound 287]
Human mGluR2 receptor
  GTPγS - hR2 PAM pEC50: 7.87‡

## Fc1cccc(F)c1C1CCN(c2ccn3c(CC4CC4)nnc3c2Cl)CC1 [compound 300]
Human mGluR2 receptor
  GTPγS - hR2 PAM pEC50: 7.24
[1]
  inhibition of PCP-induced hyperlocomotion in mice (in words): inhibited
  Mice ED50 (mg/kg) PCP-Inh., estimated ED50 (footnote a): 12.6 ^a) mg/kg

## COc1cccc(F)c1N1CCN(c2ccn3c(CC4CC4)nnc3c2C(F)(F)F)CC1 [compound 301]
Human mGluR2 receptor
  GTPγS - hR2 PAM pEC50: 7.45‡

## COc1cccc(F)c1N1CCN(c2ccn3c(CC4CC4)nnc3c2Cl)CC1 [compound 302]
Human mGluR2 receptor
  GTPγS - hR2 PAM pEC50: 6.55

## FC(F)(F)c1cc(CN2CCN(c3ccn4c(CC5CC5)nnc4c3Cl)CC2)cc(C(F)(F)F)c1 [compound 304]
Human mGluR2 receptor
  GTPγS - hR2 PAM pEC50: 6.12

## Fc1ccc(OC2CCN(c3ccn4c(CC5CC5)nnc4c3C(F)(F)F)CC2)c(F)c1 [compound 315]
Human mGluR2 receptor
  GTPγS - hR2 PAM pEC50: 7.24

## CCCCc1nnc2c(C(F)(F)F)c(N3CCC(c4ccc(F)cc4F)CC3)ccn12 [compound 327]
Human mGluR2 receptor
  GTPγS - hR2 PAM pEC50: 7.71‡

## CCOCc1nnc2c(C(F)(F)F)c(N3CCC(c4ccc(F)cc4F)CC3)ccn12.Cl [compound 339]
Human mGluR2 receptor
  GTPγS - hR2 PAM pEC50: 7.15‡

## Fc1cc(F)cc(N2CCN(c3ccn4c(CC5CC5)nnc4c3C(F)(F)F)CC2)c1 [compound 351]
Human mGluR2 receptor
  GTPγS - hR2 PAM pEC50: 7.46‡

## Fc1cnc(N2CCN(c3ccn4c(CC5CC5)nnc4c3C(F)(F)F)CC2)c(F)c1 [compound 359]
Human mGluR2 receptor
  GTPγS - hR2 PAM pEC50: 7‡

## Fc1ccc(N2CCN(c3ccn4c(CC5CC5)nnc4c3C(F)(F)F)CC2)nc1 [compound 360]
Human mGluR2 receptor
  GTPγS - hR2 PAM pEC50: 6.44‡
